Active and inactive are the calls of the source. How the calls were made is not given here.
Tested on: GENE-TOX genotoxicity assays, various organisms and cells
Assay: GENE-TOX mutagenicity studies
Conditions: for call: Assay Type: In vivo carcinogenicity studies
[1] = Species/Cell Type: Nonhuman, Assay Code: CCG+, Evaluation Type: Evaluation A (Pre-1980)
[2] = Species/Cell Type: Nonhuman, Assay Type: Sister-chromatid exchange (SCE) in vivo, Assay Code: SC3+, Evaluation Type: Evaluation B (Post-1980)
[3] = Species/Cell Type: Salmonella typhimurium (one or more of the five standard strains: TA98, TA100, TA1535, TA1537, and TA1538), Assay Type: Histidine reverse gene mutation, Ames assay, Assay Code: SAL+*, Activation: With metabolic activation, Evaluation Type: Evaluation A (Pre-1980)
[4] = Species/Cell Type: Syrian hamster embryo (SA7/SHE) cells, Assay Type: Cell transformation, viral enhanced, Assay Code: CT7+, Evaluation Type: Evaluation A (Pre-1980)
[5] = Species/Cell Type: Fischer rat embryo (RLV/1706) cells, Assay Type: Cell transformation, viral enhanced, Assay Code: CTR+, Evaluation Type: Evaluation A (Pre-1980)
[6] = Species/Cell Type: Drosophila melanogaster, Assay Type: Sex-linked recessive lethal gene mutation, Assay Code: SRLT, Evaluation Type: Evaluation A (Pre-1980)
[7] = Species/Cell Type: Mammalian polychromatic erythrocytes, Assay Type: Micronucleus test, chromosome aberrations, Assay Code: MNT+, Evaluation Type: Evaluation B (Post-1980)
[8] = Species/Cell Type: Salmonella typhimurium (one or more of the five standard strains: TA98, TA100, TA1535, TA1537, and TA1538), Assay Type: Histidine reverse gene mutation, Ames assay, Assay Code: SAL-, Evaluation Type: Evaluation A (Pre-1980)
[9] = Species/Cell Type: Saccharomyces cerevisiae, Assay Type: Mitotic recombination or gene conversion, Assay Code: YEC+, Evaluation Type: Evaluation A (Pre-1980)
[10] = Species/Cell Type: Human diploid fibroblasts, Assay Type: Unscheduled DNA synthesis (UDS) in vitro, DNA effects, Assay Code: UDH-, Evaluation Type: Evaluation A (Pre-1980)
[11] = Species/Cell Type: Nonhuman, Assay Type: Sister-chromatid exchange (SCE) in vitro, Assay Code: SC2+, Evaluation Type: Evaluation B (Post-1980)
[12] = Species/Cell Type: Saccharomyces cerevisiae, Assay Type: Mitotic recombination or gene conversion, Assay Code: YEH-, Evaluation Type: Evaluation A (Pre-1980)
[13] = Species/Cell Type: Saccharomyces cerevisiae, Assay Type: Reverse gene mutation, Assay Code: YER+, Evaluation Type: Evaluation A (Pre-1980)
[14] = Species/Cell Type: Escherichia coli polA (W3119 vs P3478), Assay Type: Rec-assay, DNA effects (bacterial DNA repair), Assay Code: RE1T, Evaluation Type: Evaluation A (Pre-1980)
[15] = Species/Cell Type: Human lymphocytes, Assay Type: Sister-chromatid exchange (SCE) in vitro, Assay Code: SCL+D, Dose Response: With dose response, Evaluation Type: Evaluation B (Post-1980)
[16] = Species/Cell Type: Human, Assay Type: Sister-chromatid exchange (SCE) in vitro, Assay Code: SC1+D, Dose Response: With dose response, Evaluation Type: Evaluation B (Post-1980)
[17] = Species/Cell Type: Chinese hamster ovary (CHO) cells, Assay Type: Forward gene mutation at the HPRT locus, Assay Code: CHO+, Evaluation Type: Evaluation B (Post-1980)

CCCN(CCC)N=O
mutagenic call (Species/Cell Type: Chinese hamster lung (V79) cells, Assay Type: Forward gene mutation at the HPRT or ouabain locus, Assay Code: V79+, Evaluation Type: Evaluation A (Pre-1980)): active; positive | mutagenic call (Species/Cell Type: Human diploid fibroblasts, Assay Type: Unscheduled DNA synthesis (UDS) in vitro, DNA effects, Assay Code: UDHT, Evaluation Type: Evaluation A (Pre-1980)): no conclusion | call [1]: active; positive | mutagenic call [2]: active; positive | mutagenic call [3]: active; positive | mutagenic call [4]: active; positive

CCCOC(=O)c1cc(O)c(O)c(O)c1
mutagenic call (Species/Cell Type: Human, Assay Type: Sister-chromatid exchange (SCE) in vitro, Assay Code: SC1T, Evaluation Type: Evaluation B (Post-1980)): no conclusion

Nc1ccc(O)c([N+](=O)[O-])c1
mutagenic call [5]: active; positive | call (Species/Cell Type: Nonhuman, Assay Code: CCG+L, Evaluation Type: Evaluation A (Pre-1980)): active; positive | mutagenic call (Species/Cell Type: Rodents, Sex: Male, Assay Type: Dominant lethal test, Assay Code: DLT-, Evaluation Type: Evaluation A (Pre-1980)): inactive; negative

CN(C)c1ccc2nc3c(C(=O)O)cc(=O)c(O)c-3oc2c1
mutagenic call [6]: no conclusion

COC1=C(OC)C(=O)C(C/C=C(\C)CC/C=C(\C)CC/C=C(\C)CC/C=C(\C)CC/C=C(\C)CC/C=C(\C)CCC=C(C)C)=C(C)C1=O
mutagenic call (Species/Cell Type: Human, Sex: Male, Assay Type: Sperm morphology, Assay Code: SPHT, Evaluation Type: Evaluation A (Pre-1980)): no conclusion

O=C1OC2(c3ccccc31)c1cc(I)c(O)c(I)c1Oc1c2cc(I)c(O)c1I
mutagenic call (Species/Cell Type: Bacillus subtilis (H17 vs M45), Assay Type: Rec-assay, spot test, DNA effects (bacterial DNA repair), Assay Code: REW-, Evaluation Type: Evaluation A (Pre-1980)): inactive; negative | mutagenic call (Species/Cell Type: Bacillus subtilis (H17 vs M45T), Assay Type: Rec-assay, spot test, DNA effects (bacterial DNA repair), Assay Code: REXT, Evaluation Type: Evaluation A (Pre-1980)): no conclusion | mutagenic call [7]: active; positive | mutagenic call (Species/Cell Type: Saccharomyces cerevisiae, Assay Type: Mitotic recombination or gene conversion, Assay Code: YEC-, Evaluation Type: Evaluation A (Pre-1980)): inactive; negative | mutagenic call [8]: inactive; negative

CN(N=O)C(=O)NC(N)=O
mutagenic call (Species/Cell Type: Arabidopsis species, Assay Type: Gene mutation, Assay Code: ARM+D, Dose Response: With dose response, Evaluation Type: Evaluation A (Pre-1980)): active; positive

O=NN(CCCl)C(=O)NCCCCO
mutagenic call [9]: active; positive

COc1cc2c(c(O)c1OC)C13CCC(OC)CC1N(CC3)C2 (stereo not drawn)
mutagenic call [7]: active; positive

COC(=O)Nc1ncc(-c2ccc(Br)cc2)[nH]1
mutagenic call (Species/Cell Type: Salmonella typhimurium, Assay Type: Forward and reverse gene mutation, host-mediated assay, Assay Code: HMAT, Evaluation Type: Evaluation A (Pre-1980)): no conclusion

CN(C)c1ccc(Cc2ccc(N(C)C)cc2)cc1
mutagenic call (Species/Cell Type: Escherichia coli polA (W3119 vs P3478), Assay Type: Rec-assay, DNA effects (bacterial DNA repair), Assay Code: RE1+, Evaluation Type: Evaluation A (Pre-1980)): active; positive | mutagenic call [5]: active; positive | mutagenic call [10]: inactive; negative | call [1]: active; positive | mutagenic call [11]: active; positive | mutagenic call [12]: inactive; negative | mutagenic call (Species/Cell Type: Salmonella typhimurium, Assay Type: Forward and reverse gene mutation, host-mediated assay, Assay Code: HMA+, Evaluation Type: Evaluation A (Pre-1980)): active; positive | mutagenic call (Species/Cell Type: Syrian hamster embryo (SHE) cells, Assay Type: Cell transformation, clonal assay, Assay Code: CTC+, Evaluation Type: Evaluation A (Pre-1980)): active; positive

Cc1ccccc1N=Nc1ccc(N=Nc2c(O)ccc3ccccc23)c(C)c1
mutagenic call (Species/Cell Type: Salmonella typhimurium (one or more of the five standard strains: TA98, TA100, TA1535, TA1537, and TA1538), Assay Type: Histidine reverse gene mutation, Ames assay, Assay Code: SALT, Evaluation Type: Evaluation A (Pre-1980)): no conclusion | mutagenic call [4]: active; positive

COC(=O)/C=C(\C)CCCC(C)(Cl)CCCC(C)(C)Cl (stereo not drawn)
mutagenic call [6]: no conclusion

CCNC1(c2ccccc2)CCCCC1
mutagenic call [4]: active; positive

COC(=O)COc1ccc(Cl)cc1C
mutagenic call [13]: active; positive

CCOc1ccccc1[N+](=O)[O-]
mutagenic call (Species/Cell Type: Salmonella typhimurium (one or more of the five standard strains: TA98, TA100, TA1535, TA1537, and TA1538), Assay Type: Histidine reverse gene mutation, Ames assay, Assay Code: SAL+, Evaluation Type: Evaluation A (Pre-1980)): active; positive

CN(CCCCCC(=O)OC[C@H](N)C(=O)O)N=O
mutagenic call (Species/Cell Type: Escherichia coli polA (W3110 vs P3478), Assay Type: Rec-assay, DNA effects (bacterial DNA repair), Assay Code: RE2T, Evaluation Type: Evaluation A (Pre-1980)): no conclusion | mutagenic call [14]: no conclusion

CCS(=O)CCSP(=O)(OC)OC (stereo not drawn)
mutagenic call [6]: no conclusion | mutagenic call [15]: active; positive | mutagenic call [16]: active; positive | mutagenic call [7]: active; positive | mutagenic call (Species/Cell Type: Nonhuman, Assay Type: Sister-chromatid exchange (SCE) in vitro, Assay Code: SC2+D, Dose Response: With dose response, Evaluation Type: Evaluation B (Post-1980)): active; positive | mutagenic call [9]: active; positive

COc1ccc2[nH]c3c(C)c4ccncc4c(C)c3c2c1
mutagenic call [17]: active; positive

O=C(O)CCCc1ccc(N(CCCl)CCCl)cc1
mutagenic call [17]: active; positive | mutagenic call (Species/Cell Type: Drosophila melanogaster, Assay Type: Sex-linked recessive lethal gene mutation, Assay Code: SRL+, Evaluation Type: Evaluation A (Pre-1980)): active; positive | mutagenic call (Species/Cell Type: Human lymphocytes, Assay Type: Sister-chromatid exchange (SCE) in vitro, Assay Code: SCL+D, Dose Response: With dose response, Evaluation Type: Evaluation A (Pre-1980)): active; positive | mutagenic call [15]: active; positive | mutagenic call (Species/Cell Type: Human lymphocytes, Assay Type: Sister-chromatid exchange (SCE) in vivo, Assay Code: SCY+, Evaluation Type: Evaluation B (Post-1980)): active; positive | mutagenic call (Species/Cell Type: Human, Assay Type: Sister-chromatid exchange (SCE) in vitro, Assay Code: SC1+D, Dose Response: With dose response, Evaluation Type: Evaluation A (Pre-1980)): active; positive | mutagenic call [16]: active; positive | mutagenic call (Species/Cell Type: Human, Sex: Male, Assay Type: Sperm morphology, Assay Code: SPH+, Evaluation Type: Evaluation A (Pre-1980)): active; positive | mutagenic call [7]: active; positive | call [1]: active; positive | mutagenic call [11]: active; positive | mutagenic call [9]: active; positive | mutagenic call [13]: active; positive

C[CH2][Pb]([CH2]C)([CH2]C)[CH2]C
mutagenic call [4]: active; positive

OC[C@@H](O)C(O)[C@@H](O)CO (stereo partly drawn)
mutagenic call (Species/Cell Type: Human, Assay Type: Sister-chromatid exchange (SCE) in vitro, Assay Code: SC1-, Evaluation Type: Evaluation B (Post-1980)): inactive; negative | mutagenic call (Species/Cell Type: Salmonella typhimurium, Assay Type: Forward and reverse gene mutation, body fluid assay, Assay Code: BFU-, Evaluation Type: Evaluation A (Pre-1980)): inactive; negative | mutagenic call (Species/Cell Type: Salmonella typhimurium, Assay Type: Forward and reverse gene mutation, host-mediated assay, Assay Code: HMA-, Evaluation Type: Evaluation A (Pre-1980)): inactive; negative

CC[C@@]1(O)C[C@H](O[C@H]2C[C@H](N)[C@H](O)[C@H](C)O2)c2c(cc3c(c2O)C(=O)c2c(O)cccc2C3=O)[C@H]1C(=O)OC
mutagenic call [3]: active; positive

CC1CCCCC1NC(=O)Nc1ccccc1 (stereo not drawn)
mutagenic call (Species/Cell Type: Bacillus subtilis (H17 vs M45), Assay Type: Rec-assay, spot test, DNA effects (bacterial DNA repair), Assay Code: REWT, Evaluation Type: Evaluation A (Pre-1980)): no conclusion | mutagenic call (Species/Cell Type: Drosophila melanogaster, Assay Type: Sex-linked recessive lethal gene mutation, Assay Code: SRL-, Evaluation Type: Evaluation A (Pre-1980)): inactive; negative | mutagenic call (Species/Cell Type: Escherichia coli WP2 UVRA, Assay Type: Tryptophan reverse gene mutation, Assay Code: WPU-*, Activation: With metabolic activation, Evaluation Type: Evaluation A (Pre-1980)): inactive; negative | mutagenic call [14]: no conclusion | mutagenic call [10]: inactive; negative | mutagenic call [12]: inactive; negative | mutagenic call [8]: inactive; negative

Cc1c2c(c(CO)c3ccc4ccccc4c13)C=C[C@H](O)[C@H]2O
call (Species/Cell Type: Nonhuman, Assay Code: CCGT, Evaluation Type: Evaluation A (Pre-1980)): no conclusion

CCOc1ccc(NC(C)=O)cc1
mutagenic call [7]: active; positive | call [1]: active; positive | mutagenic call [2]: active; positive
